Test results: US8236984B2, “Compound and use thereof in the treatment of amyloidosis” (Pentraxin Therapeutics Ltd., priority 2007, dated 2012)
“Also recorded” adds a separate entry of the source.

Assays:
transthyretin Ala60 = transthyretin Ala60 (Homo sapiens, UniProt P02766); experiment: Displacement of 125I-T4 from transthyretin in whole serum; format: binding; conditions: read-out: IC50 for displacement of T4 from transthyretin Ala60 in serum; whole serum of heterozygous subjects, mean
Excerpt: (§1) 3.2.3.2. Quantitative studies in serum. […] The immunoprecipitate was recovered by centrifugation, washed twice with 0.1 M Tris, 0.1 M NaCl, pH 8.0 and counted.

transthyretin Ile122 = transthyretin Ile122 (Homo sapiens, UniProt P02766); experiment: as above; format: binding; conditions: read-out: IC50 for displacement of T4 from transthyretin Ile122 in serum; whole serum of heterozygous subjects, mean
Excerpt: as §1

transthyretin Met30 = transthyretin Met30 (Homo sapiens, UniProt P02766); experiment: as above; format: binding; conditions: read-out: IC50 for displacement of T4 from transthyretin Met30 in serum; whole serum of heterozygous subjects, mean
Excerpt: as §1

transthyretin Tyr77 = target: T1, transthyretin Tyr77 (Homo sapiens, UniProt P02766, S97Y); experiment: as above; format: binding; conditions: whole serum of heterozygous subjects, mean
T1 construct: The displacement of T4 from transthyretin in whole serum; from tissue; host or cells: whole serum of heterozygous carriers
Excerpt: as §1

[1] = Solubility as noted for calorimetry; format: physicochemical; conditions: in words, reason ITC could not be performed
transthyretin = target: T2, transthyretin (Homo sapiens, UniProt P02766); experiment: Analytical ultracentrifugation (sedimentation velocity and equilibrium); format: biochemical
T2 construct: Native tetrameric transthyretin was purified from fractionated human plasma; from tissue; host or cells: human plasma
Protocol: 4.1. Analytical ultracentrifugation. Sedimentation velocity and equilibrium analytical centrifugation experiments were performed at 20° C. on a Beckman XL-I instrument equipped with an An50Ti rotor in which both absorbance (recorded at a wavelength of 280 nm) and interference scans were recorded simultaneously. Sedimentation analyses were performed at pH 4.4 by incubating the protein (3.6 μM) for 72 h under the conditions of the stagnant transthyretin aggregation-inhibition assay (Petrassi et al., 2000) in presence of the ligand (3.6 μM). […] Sedimentation velocity data were acquired over 8 h at rotor speed of 42,000 rpm in two-sector cells with solution column heights of 12 mm. Absorbance values were modelled as a continuous distribution of sedimentation coefficients, c(s) (Schuck, 2000) using the software SEDFIT (Schuck, 2005). Sedimentation equilibrium measurements of transthyretin bound to the ligand, in the same conditions used for the sedimentation velocity analysis, were acquired using six-sector cells in an AnTi 50 rotor with column heights of 2 mm at rotor speed of 17,000 rpm until equilibrium was reached as shown by the perfect overlay of runs measured at intervals of 5 h. A final run at 42,000 rpm was performed at the end of the experiment to determine the background levels for use in curve fitting. Data analysis was performed using Beckman software provided as an add-on to Origin Version 4.1 (Microcal Inc.) for which the partial specific volume was calculated to be 0.7353 ml/g from the amino acid sequence (Perkins, 1986). The buffer density and viscosity were calculated using the program […] (Laue et al., 1992). […] Sedimentation equilibrium analysis of transthyretin in the presence of the ligand was entirely consistent with a single species of mass 55,784±107.87 Da, in good agreement with the calculated molecular mass of tetrameric wild type transthyretin with bound 4ajm15 (55794 Da). […]

V30M transthyretin = target: T3, V30M transthyretin (Homo sapiens, UniProt P02766, V50M); experiment: Mass spectrometric analysis of ligand dissociation under increasing cone voltage; format: binding; conditions: equimolar 4.4 μM with wild type, 2 fold excess of ligand
T3 construct: made in house
Excerpt: (§2) 4.3. Mass spectrometric analysis of dissociation of 4ajm15 from wild type and amyloidogenic variant transthyretin. ESMS spectra were acquired under increasing cone voltage conditions to induce stepwise dissociation of the ligand from wild type transthyretin and amyloidogenic variants V30M and L55P transthyretin. As the cone voltage increases splitting becomes apparent in the tetramer peaks, corresponding to apo (protein alone) and holo (protein+ligand) transthyretin as ligand begins to dissociate.
The onset of ligand dissociation from V30M transthyretin occurs at the same energy level but the peak height corresponding to apo V30M transthyretin is lower than that for wild type (FIG. 17). Since these two species have very similar amino acid sequences (and therefore similar charging during MS ionisation) they are able to act as internal standards for each other. Therefore a lower peak height for apo V30M compared to apo WT is indicative of a lower proportion of apo V30M than apo WT. At increasing energy levels apo V30M is consistently lower relative to apo WT and as ligand dissociation from WT is complete, a proportion of holo V30M is still present.
V30M transthyretin and [^15N, ^13C] wild type transthyretin in a 2 fold excess of ligand. […]

L55P transthyretin = target: T4, L55P transthyretin (Homo sapiens, UniProt P02766, L75P); experiment: as above; format: binding; conditions: equimolar 4.4 μM with wild type, 2 fold excess of ligand
T4 construct: made in house
Excerpt: as §2
(§3) L55P transthyretin and [^15N, ^13C] wild type transthyretin in a 2 fold excess of 4ajm15. […] In spectrum β the onset of 4ajm15 dissociation from wild type tetramer is observed (a) while no ligand dissociation is observed from L55P transthyretin. Dissociation from wild type transthyretin progresses with increasing collisional energy in spectrum γ, but it is not until spectrum δ, where approximately 50% of the wild type is apo, that ligand dissociation from L55P transthyretin is observed (a).

wild type transthyretin = wild type transthyretin (Homo sapiens, UniProt P02766); experiment: as above; format: binding; set-up: made in house
Excerpt: as §2, §3
V30M transthyretin and [^15N, ^13C] wild type transthyretin in a 2 fold excess of ligand. In A, at the onset of 4ajm15 dissociation (spectrum β) the peak height corresponding to apo V30M transthyretin is lower than that for wild type (labelled a and a respectively) for each charge state. At high energy level (γ), ligand dissociation from wild type is complete while a proportion of […] V30M remains (h). […]

Structure (SMILES): O=C(O)c1ccccc1Nc1cc(Cl)c(OCCCCCCCCCCCOc2c(Cl)cc(Nc3ccccc3C(=O)O)cc2Cl)c(Cl)c1 [4ajm15, 2,2′-(4,4′-(undecane-1,11-diylbis(oxy))bis(3,5-dichloro-4,1-phenylene))bis(azanediyl)dibenzoic acid]
- IC50 (transthyretin Ala60): 26.5 µM
- IC50 (transthyretin Ile122): 29.4 µM
- IC50 (transthyretin Met30): 61.6 µM
- IC50 (transthyretin Tyr77): 26.2 µM
- solubility [1]: limited solubility; also recorded: too insoluble
- sedimentation coefficient of transthyretin with bound ligand (transthyretin; 3.6 μM protein, 3.6 μM ligand, 72 h 37° C., pH 4.4): 3.7 S
- mass of single species by sedimentation equilibrium (transthyretin; 3.6 μM protein, 3.6 μM ligand, pH 4.4): 55,784±107.87 Da
- quaternary structure under tetramer-dissociating conditions (transthyretin; 72 h at 37° C. and pH 4.4): remains tetrameric
- peak height of apo V30M transthyretin at onset of dissociation (spectrum β) (V30M transthyretin): ~45%
- dissociation of ligand from L55P transthyretin (L55P transthyretin): only at higher collisional energy than wild type
- proportion of wild type that is apo when dissociation from L55P is first observed (spectrum δ) (L55P transthyretin): approximately 50%
- peak height of apo wild type transthyretin at onset of dissociation (spectrum β) (wild type transthyretin; equimolar 4.4 μM with V30M, 2 fold excess of ligand): ~75%
- relative binding avidities for ligand among transthyretin forms (wild type transthyretin; wild type versus V30M and L55P, increasing cone voltage): wild type transthyretin<V30M transthyretin<L55P transthyretin
